Experiments:
Format in all cases: cell-based
MDA-MB-231 = assay: Cell viability (CellTiter-Glo), MDA-MB-231; conditions: Homo sapiens; MDA-MB-231, 48 hr
Procedure: (§1) Cancer cell growth, viability, and apoptosis assays. HCT116, SW620, SW480, MDA-MB-231 cancer lines were maintained according to ATCC guidelines. For cell growth and viability assays, cells were seeded at 2000 cells/100 μl/well in 96-well plates. Cell number was measured at different time points using CellTiter-Glo® Luminescent Cell Viability Assay (Promega). For apoptosis assays, cells were seeded at 5000 cells/100 μl/well in 96-well plates. Drug was added for 24 hr and Caspase-3 and -7 activities were measured using Apo-ONE® Homogeneous Caspase-3/7 Assay (Promega).

[1] = tested on: Wnt-mediated gene transcription; assay: Topflash reporter assay in HEK 293 cells; conditions: Homo sapiens, HEK293; HEK 293 cells stimulated with Wnt3a, Topflash luciferase; read-out: EC50, inhibition of Wnt-mediated transcription
Procedure: Topflash reporter assay. HEK 293 cells stably expressing 8× Supertopflash were seeded in quadruplicate at 15,000 cells/well/100 μl of medium in 96 well-plate. […] Cells were lysed in passive lysis buffer (Promega), and luciferase was measured according to Promega's Steady-Glo protocol.

SW620 = assay: Cell viability (CellTiter-Glo), SW620; conditions: Homo sapiens, SW-620; SW620, 48 hr
Procedure: as §1

SW480 = assay: Cell viability (CellTiter-Glo), SW480; conditions: Homo sapiens; SW480, 48 hr
Procedure: as §1

Measured: EC50

Cc1cc(/C=C/c2ccc3cc(N(C)C)ccc3[n+]2C)c(C)n1-c1ccccc1 [pyrvinium, pyrvinium pamoate]
< 50 nM: all assays above

From patent publication US20090099062A1 (priority 2007, published 2009)
